Laboratory results: patent publication US20150119352A1, “DINUCELOSIDE POLYPHOSPHATES FOR THE TREATMENT OF PAIN” (GlobalAcorn Ltd., priority 2012, published 2015)
Where two headings read alike, the source gives them in different places. One block for each molecule: values may come before it.

How the values were obtained:
P2X3 receptors = biological target: T1, P2X3 receptors (Homo sapiens, UniProt P56373); conditions: Jarvis et al, 2002; cited from earlier work
T1 sequence (P56373 1-397): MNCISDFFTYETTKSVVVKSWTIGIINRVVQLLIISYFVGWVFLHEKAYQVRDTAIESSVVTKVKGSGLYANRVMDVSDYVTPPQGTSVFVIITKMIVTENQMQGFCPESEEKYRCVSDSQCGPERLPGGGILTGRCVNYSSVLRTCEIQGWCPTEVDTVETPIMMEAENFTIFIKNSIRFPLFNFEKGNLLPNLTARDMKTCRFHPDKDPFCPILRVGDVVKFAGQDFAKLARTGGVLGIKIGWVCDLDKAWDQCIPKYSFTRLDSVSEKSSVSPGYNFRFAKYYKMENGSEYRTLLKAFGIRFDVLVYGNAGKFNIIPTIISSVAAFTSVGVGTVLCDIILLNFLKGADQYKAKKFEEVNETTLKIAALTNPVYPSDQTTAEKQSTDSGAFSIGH

male Wistar rats = experiment: Formalin test (nociceptive behaviour, spontaneous jerking of injected paw); assay type: in vivo, rat; conditions: for IC50: Rattus norvegicus, Table 1, concentration; for IC50 First phase (acute pain), calculated / IC50 Second phase (chronic pain), calculated: Table 1, assuming 40 g rat body weight; for First phase (acute pain) / First phase (acute pain) (μg/kg) / Second phase (chronic pain) / Second phase (chronic pain) (μg/kg): Table 2; for First phase (acute pain) Human (70 kg) nmol / Second phase (chronic pain) Human (70 kg) nmol: Table 2, estimated indicative dose for 70 kg human; for First phase (acute pain) Rat (40 g) nmol / Second phase (chronic pain) Rat (40 g) nmol: Table 2, per 40 g rat
Procedure: FIG. 6. Effects of subcutaneous Ap4A analogues on pain responses induced by intraplantar (right hindpaw) formalin injection. Rats were subcutaneously injected with formalin solution alone (0.5%, 50 μL, control) or co-injected with the formalin solution and solutions with AppCH2ppA (1 μM-100 μM, 100 μL) or AppNHppA (0.1 μM-100 μM, 100 μL). Age-matched control animals were injected with saline. A. Time-course of the effects of subcutaneous AppCH2ppA (a) and AppNHppA (b) on the number of the spontaneous jerkings of the injected paw. B. Bar-graphs of the effects of AppCH2ppA (a, b) and AppNHppA (c, d) on the integral number of spontaneous jerkings. Measurements were made during the acute phase (0-6 min) and tonic phase (7-45 min) of the formalin response. C. Dose-response curves for AppCH2ppA (a) and AppNHppA (b) during tonic and acute phases.
The formalin test experiments were performed on 21-day old male Wistar rats, weighing 40±5 g according to the method described previously (Simonetti et al, 2006; Yegutkin et al, 2008). Briefly, animal was acclimated to an acrylic observation chamber for at least 1 h before the injection of formalin ([…] of 0.5% solution in 0.9% saline) into the dorsal surface of the right hindpaw. Age-matched control animals were injected with saline (100 μL). Immediately after the injection, each animal was returned to the observation chamber and its behavioural characteristics were recorded for 45 min. We noticed consistently observed type of response: spontaneous jerking of the injected paw. The number of jerks was measured for each […], using self-developed computer software.
The effects of AppNHppA and AppCH2ppA were examined on the behavioral reactions of rats in inflammatory pain models. Injection of diluted formalin into a rodent's hindpaw produces a biphasic nociceptive response consisting of immediate (acute phase) and tonic (inflammatory phase) components. The first phase of a formalin response (i.e. 0-5 min after injection) involves a direct effect of formalin on the pain receptors, while changes in animal behavior during the second tonic phase (i.e. 7-45 min after injection) are caused by hyperalgesia that develops due to the sensitization of nociceptive and spinal neurons via mechanisms that are triggered by repetitive stimulation during the first phase.

[1] = read-out: IC50 First phase (acute pain)
[2] = read-out: IC50 Second phase (chronic pain)

Structure (SMILES): O=C(O)c1cc(C(=O)O)c(C(=O)N(Cc2cccc(Oc3ccccc3)c2)[C@H]2CCCc3ccccc32)cc1C(=O)O [A-317491]
concentration range of binding to P2X3 receptors (P2X3 receptors): within a micromolar range

IC50 (male Wistar rats; [1]): ~50000 nM
IC50 (male Wistar rats; [2]): 84 ± 140 nM
Structure (SMILES): Nc1ncnc2c1ncn2[C@@H](CO)O[C@@H](CO)COP(=O)(O)OP(=O)(O)CP(=O)(O)OP(=O)(O)OC[C@H](CO)O[C@H](CO)n1cnc2c(N)ncnc21 [AdiolppCH2ppAdiol]
IC50 First phase (acute pain), calculated (male Wistar rats): ~125 nmol/kg
IC50 Second phase (chronic pain), calculated (male Wistar rats): 0.21 ± 0.35 nmol/kg
First phase (acute pain) (male Wistar rats): ~125 nmol/kg
First phase (acute pain) (μg/kg) (male Wistar rats): (104) μg/kg
Second phase (chronic pain) (male Wistar rats): 0.21 ± 0.35 nmol/kg
Second phase (chronic pain) (μg/kg) (male Wistar rats): (0.175) μg/kg
First phase (acute pain) Human (70 kg) nmol (male Wistar rats): 8750 nmol
Second phase (chronic pain) Human (70 kg) nmol (male Wistar rats): 14.7 nmol
First phase (acute pain) Rat (40 g) nmol (male Wistar rats): 5 nmol
Second phase (chronic pain) Rat (40 g) nmol (male Wistar rats): 0.0084 nmol

IC50 (male Wistar rats; [1]): > 100000 nM
IC50 (male Wistar rats; [2]): 180 ± 120 nM
Structure (SMILES): Nc1nc2c(ncn2[C@@H]2O[C@H](COP(=O)(O)OP(=O)(O)CP(=O)(O)OP(=O)(O)OC[C@H]3O[C@@H](n4cnc5c(N)ncnc54)C(O)C3O)C(O)[C@@H]2O)c(=O)[nH]1 (stereo partly shown) [AppCH2ppG]
IC50 First phase (acute pain), calculated (male Wistar rats): >250 nmol/kg
IC50 Second phase (chronic pain), calculated (male Wistar rats): 0.45 ± 0.30 nmol/kg
First phase (acute pain) (male Wistar rats): >250 nmol/kg
First phase (acute pain) (μg/kg) (male Wistar rats): (209) μg/kg
Second phase (chronic pain) (male Wistar rats): 0.45 ± 0.30 nmol/kg
Second phase (chronic pain) (μg/kg) (male Wistar rats): (0.376) μg/kg
First phase (acute pain) Human (70 kg) nmol (male Wistar rats): 17500 nmol
Second phase (chronic pain) Human (70 kg) nmol (male Wistar rats): 31.5 nmol
First phase (acute pain) Rat (40 g) nmol (male Wistar rats): 10 nmol
Second phase (chronic pain) Rat (40 g) nmol (male Wistar rats): 0.018 nmol
